Data: ChEMBL document CHEMBL1201862, “PubChem BioAssay data set” (2004)
Calls of active or inactive are those of the source.

How the values were obtained:
[1] = system: Streptococcus sp. 'group A'; experiment: Streptococcus pyogenes SK(-)GAS viability under kanamycin – luminescence, BacTiterGlo, confirmation, counter-screen for streptokinase expression inhibitor project, dose response (AID 1900); type: functional, organism-based
Exodeoxyribonuclease V = target: T1, Exodeoxyribonuclease V (Escherichia coli (strain K12), UniProt P04993+P07648+P08394); experiment: RecBCD inhibition via phage-restricted bacterial growth – absorbance, V66 E. coli, mutant T4 phage, counter-screen for AddAB inhibitor project, dose response (AID 492957); type: functional, cell-based, Escherichia coli str. K-12 substr. MG1655
T1 sequence (P04993 whole entry): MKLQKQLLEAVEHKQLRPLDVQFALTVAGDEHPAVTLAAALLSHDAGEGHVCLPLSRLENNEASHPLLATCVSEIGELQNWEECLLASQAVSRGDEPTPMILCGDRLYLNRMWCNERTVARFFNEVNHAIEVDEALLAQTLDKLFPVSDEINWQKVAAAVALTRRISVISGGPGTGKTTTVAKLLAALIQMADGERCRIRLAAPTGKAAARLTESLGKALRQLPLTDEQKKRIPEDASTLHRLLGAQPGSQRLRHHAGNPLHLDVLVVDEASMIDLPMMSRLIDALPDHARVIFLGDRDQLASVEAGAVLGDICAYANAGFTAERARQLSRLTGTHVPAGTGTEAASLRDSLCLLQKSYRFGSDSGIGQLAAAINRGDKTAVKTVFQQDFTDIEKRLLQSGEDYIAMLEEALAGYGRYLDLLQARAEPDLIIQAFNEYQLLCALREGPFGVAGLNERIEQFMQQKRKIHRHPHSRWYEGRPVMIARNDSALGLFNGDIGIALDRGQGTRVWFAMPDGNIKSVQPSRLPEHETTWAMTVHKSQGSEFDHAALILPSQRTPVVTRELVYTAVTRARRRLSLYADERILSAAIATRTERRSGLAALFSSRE
T1 sequence (P07648 whole entry): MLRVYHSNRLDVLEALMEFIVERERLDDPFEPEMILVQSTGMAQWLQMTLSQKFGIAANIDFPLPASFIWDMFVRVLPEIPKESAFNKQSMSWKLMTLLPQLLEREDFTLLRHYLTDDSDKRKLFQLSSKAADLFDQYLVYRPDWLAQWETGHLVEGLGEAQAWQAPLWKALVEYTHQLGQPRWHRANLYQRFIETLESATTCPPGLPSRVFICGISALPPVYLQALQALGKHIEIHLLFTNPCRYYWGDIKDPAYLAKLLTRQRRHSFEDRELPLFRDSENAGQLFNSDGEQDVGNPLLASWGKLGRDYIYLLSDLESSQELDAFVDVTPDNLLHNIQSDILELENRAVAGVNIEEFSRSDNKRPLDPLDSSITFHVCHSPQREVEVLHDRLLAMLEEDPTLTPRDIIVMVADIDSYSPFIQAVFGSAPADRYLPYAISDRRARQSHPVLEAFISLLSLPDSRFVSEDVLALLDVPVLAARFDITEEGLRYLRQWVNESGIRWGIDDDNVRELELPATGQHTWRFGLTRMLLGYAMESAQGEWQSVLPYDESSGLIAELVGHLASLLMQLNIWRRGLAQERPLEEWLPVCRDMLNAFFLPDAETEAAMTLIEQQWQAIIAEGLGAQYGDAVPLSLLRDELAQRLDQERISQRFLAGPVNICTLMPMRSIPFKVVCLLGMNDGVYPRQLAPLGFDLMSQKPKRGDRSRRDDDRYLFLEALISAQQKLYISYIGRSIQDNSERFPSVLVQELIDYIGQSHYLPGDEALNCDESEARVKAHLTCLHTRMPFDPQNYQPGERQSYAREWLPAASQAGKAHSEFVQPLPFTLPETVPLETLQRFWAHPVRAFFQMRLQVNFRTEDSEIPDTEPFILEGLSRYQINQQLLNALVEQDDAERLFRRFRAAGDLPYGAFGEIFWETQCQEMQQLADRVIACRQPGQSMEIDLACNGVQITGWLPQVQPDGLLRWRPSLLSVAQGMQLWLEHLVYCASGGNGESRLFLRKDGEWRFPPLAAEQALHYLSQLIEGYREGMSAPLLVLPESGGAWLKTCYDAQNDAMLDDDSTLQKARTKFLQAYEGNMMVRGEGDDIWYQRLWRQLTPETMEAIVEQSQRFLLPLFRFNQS
T1 sequence (P08394 whole entry): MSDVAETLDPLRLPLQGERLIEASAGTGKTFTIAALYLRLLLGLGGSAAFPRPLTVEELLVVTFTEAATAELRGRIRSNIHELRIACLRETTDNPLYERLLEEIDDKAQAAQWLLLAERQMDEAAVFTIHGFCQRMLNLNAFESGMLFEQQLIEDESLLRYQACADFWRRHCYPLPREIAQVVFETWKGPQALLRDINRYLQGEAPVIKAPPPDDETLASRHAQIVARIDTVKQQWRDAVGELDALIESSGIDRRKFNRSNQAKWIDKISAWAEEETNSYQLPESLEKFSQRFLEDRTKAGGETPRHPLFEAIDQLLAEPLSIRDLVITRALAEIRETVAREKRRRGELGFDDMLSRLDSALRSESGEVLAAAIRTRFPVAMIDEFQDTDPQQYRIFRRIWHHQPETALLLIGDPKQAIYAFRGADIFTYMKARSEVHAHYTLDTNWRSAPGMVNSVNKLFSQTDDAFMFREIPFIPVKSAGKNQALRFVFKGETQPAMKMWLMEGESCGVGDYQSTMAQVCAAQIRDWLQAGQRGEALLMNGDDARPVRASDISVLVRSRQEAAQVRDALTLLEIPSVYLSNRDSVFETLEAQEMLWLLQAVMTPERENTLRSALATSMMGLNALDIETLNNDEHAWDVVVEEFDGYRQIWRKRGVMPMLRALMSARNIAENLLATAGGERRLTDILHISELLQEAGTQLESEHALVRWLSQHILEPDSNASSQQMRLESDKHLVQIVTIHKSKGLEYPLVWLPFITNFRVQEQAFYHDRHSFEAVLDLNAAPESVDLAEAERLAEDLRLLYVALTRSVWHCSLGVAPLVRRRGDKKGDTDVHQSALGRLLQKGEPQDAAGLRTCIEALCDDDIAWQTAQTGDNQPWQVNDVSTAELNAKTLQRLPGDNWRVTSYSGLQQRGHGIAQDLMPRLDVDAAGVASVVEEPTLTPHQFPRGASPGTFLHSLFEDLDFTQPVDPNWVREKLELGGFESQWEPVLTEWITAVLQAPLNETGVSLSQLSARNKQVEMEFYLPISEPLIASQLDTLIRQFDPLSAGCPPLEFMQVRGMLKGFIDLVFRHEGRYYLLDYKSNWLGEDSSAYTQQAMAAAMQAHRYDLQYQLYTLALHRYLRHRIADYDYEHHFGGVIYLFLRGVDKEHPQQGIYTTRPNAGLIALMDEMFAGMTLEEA

cells = type: functional, cell-based
Jurkat = experiment: SAR Analysis of small molecule inhibitors of T-cell specific antigen receptor-induced NF-kB activation in a Jurkat cell line using a luminescence assay - Set 2. [Related pubchem assays (depositor defined):AID435003, AID435012, AID465]; type: functional, cell-based; settings: Homo sapiens
[2] = HEK-293T viability loss after treatment – luminescence, T-cell screen hits, cytotoxicity control for TCR NF-kB inhibitor project, dose response (AID 489026); type: functional, cell-based;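 note: cells exposed to compound about 14 hours before the viability readout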

| Structure (SMILES) | EC50 [1] | IC50 (Exodeoxyribonuclease V) | EC50 (cells) | IC50 (Jurkat) | IC50 [2] |
| --- | --- | --- | --- | --- | --- |
| CCOc1cccc(/C=N/NC(=S)Nc2ccccc2[N+](=O)[O-])c1O | 0.267 µM (active) | – | – | – | – |
| CCCCC(=O)NC(c1ccc(N(CC)CC)cc1)c1ccc2cccnc2c1O (stereo not given) | – | > 119 µM (inactive) | 3.08 µM (active) | 3.12 µM (active) | > 80 µM (inactive) |
